Results published in patent US11505569B2, “GalNAc phosphoramidites, nucleic acid conjugates thereof and their use” (Hoffmann-La Roche, Inc., priority 2014, dated 2022).
Strand notation (5' to 3'): a small letter for the sugar, then the base; units joined by * are phosphorothioate-linked, units joined directly phosphodiester-linked; [ ] holds rarer units or linkages, { } end groups; capitals alone tell only the bases. l = locked nucleic acid (LNA); [5mC] = 5-methylcytosine; d = 2'-deoxy (DNA)

Test system: ApoB mRNA
Assay: Knock down of ApoB mRNA in vivo (qPCR on liver and kidney RNA)
Settings: C57BL6/J mice, single sc dose 0.25 mg/kg GalNAc2 or equimolar amounts; for down regulation of ApoB mRNA in kidney: sacrificed at day 10, kidney, qPCR (FIG. 7B); for ApoB mRNA knock down in the liver: sacrificed at day 10, liver, qPCR (FIG. 7A)
Experimental: To compare the effect of different GalNAc constructs C57BL6/J mice were injected sc with a single dose saline or 0.25 mg/kg GalNAc2 cluster conjugated LNA-antisense oligonucleotide (GalNAc2) or equimolar amounts of LNA antisense oligonucleotides conjugated to the GalNAc constructs of the invention (FIGS. 6 E, I, M and N) or unconjugated LNA antisense oligonucleotide (see Example 2, table 1 for details) and sacrificed at days 10 where liver and kidney were isolated.
At sacrifice RNA was isolated from liver and kidney and subjected to qPCR with ApoB specific primers and probe to analyze for ApoB mRNA knockdown as described in the protocol below.
The animals were anaesthetised with 70% CO2-30% O2 and sacrificed by cervical dislocation. One half of the large liver lobe and one kidney were minced and submerged in RNAlater.
Total RNA was extracted from a maximum of 30 mg of tissue/sample, homogenized by bead-milling in the presence of lysis buffer (MagnaPure LC RNA Isolation Tissue buffer (#03604721001; Roche)) according to the manufacturer's instructions. The RNA was purified on a MagnaPure 96 System; Roche using Cellular RNA Large Volume Kit (#05467535001; Roche) using the manufacturer's standard protocol. First strand synthesis was performed using Reverse Transcriptase reagents from Ambion according to the manufacturer's instructions.
For each sample 0.5 μg total RNA was adjusted to (10.8 μl) with RNase free H2O and mixed with 2 μl random decamers (50 μM) and 4 μl dNTP mix (2.5 mM each dNTP) and heated to 70° C. for 3 min after which the samples were rapidly cooled on ice. 2 μl 10× Buffer RT, 1 μl MMLV Reverse Transcriptase (100 U/μl) and 0.25 μl RNase inhibitor (10 U/μl) were added to each sample, followed by incubation at 42° C. for 60 min, heat inactivation of the enzyme at 95° C. for 10 min and then the sample was cooled to 4° C. cDNA samples were diluted 1:5 and subjected to RT-QPCR using Taqman Fast Universal PCR Master Mix 2× (Applied Biosystems Cat #4364103) and Taqman gene expression assay (mApoB, Mn01545150_ml and mGAPDH #4352339E) following the manufacturers protocol and processed in an Applied Biosystems RT-qPCR instrument (7500/7900 or ViiA7) in fast mode.

Q: How did the “down regulation of ApoB mRNA in kidney” value turn out when “Control: unconjugated oligonucleotide of SEQ ID NO: 1 (5′G^mCattggtatT^mCA-3′), without any GalNAc moieties attached (DNA GCATTGGTATTCA; LNA modifications, chemistry not fully specified) [reference compound]” was run?
A: higher

Q: Which results are given for “E: trivalent GalNAc construct, chain length 10, conjugated to oligonucleotide SEQ ID NO: 2 (5′ caG^mCattggtatT^mCA-3′) (antisense CAGCATTGGTATTCA; sugars from the 5' end d2 l2 d8 l3, [5mC] at 4, 14, backbone not given here; trivalent GalNAc conjugate, first linkages phosphodiester)”?
A: down regulation of ApoB mRNA in kidney: higher for the unconjugated LNA oligonucleotide (control) than for the GalNAc conjugated compounds; ApoB mRNA knock down in the liver: comparable effect on the target mRNA (ApoB mRNA) to the GalNAc2 cluster

Q: For “GalNAc2: SEQ ID NO: 1 attached to the GalNAc2 cluster by a phospothioate group; SEQ ID NO: 20 in WO 2014/076196 (antisense lG*l[5mC]*dA*dT*dT*dG*dG*dT*dA*dT*lT*l[5mC]*lA; GalNAc2 cluster attached via phosphorothioate, end not given here) [reference compound]”, which “down regulation of ApoB mRNA in kidney” value is on record?
A: higher for the unconjugated LNA oligonucleotide (control) than for the GalNAc conjugated compounds

Q: With “I: trivalent GalNAc construct, chain length 16, conjugated to oligonucleotide SEQ ID NO: 2 (antisense CAGCATTGGTATTCA; sugars from the 5' end d2 l2 d8 l3, [5mC] at 4, 14, backbone not given here; trivalent GalNAc conjugate, first linkages phosphodiester)” as the substance, how does the “down regulation of ApoB mRNA in kidney” value read?
A: higher for the unconjugated LNA oligonucleotide (control) than for the GalNAc conjugated compounds

Q: What about the “ApoB mRNA knock down in the liver” value of the same substance?
A: comparable effect on the target mRNA (ApoB mRNA) to the GalNAc2 cluster

Q: What does the source list for “M: trivalent GalNAc construct with spacer, chain length 16, conjugated to oligonucleotide SEQ ID NO: 2 (antisense CAGCATTGGTATTCA; sugars from the 5' end d2 l2 d8 l3, [5mC] at 4, 14, backbone not given here; further chemistry not fully specified)”?
A: down regulation of ApoB mRNA in kidney: higher for the unconjugated LNA oligonucleotide (control) than for the GalNAc conjugated compounds; ApoB mRNA knock down in the liver: comparable effect on the target mRNA (ApoB mRNA) to the GalNAc2 cluster

Q: “N: trivalent GalNAc construct with spacer, chain length 30, conjugated to oligonucleotide SEQ ID NO: 2 (antisense CAGCATTGGTATTCA; sugars from the 5' end d2 l2 d8 l3, [5mC] at 4, 14, backbone not given here; further chemistry not fully specified)” was tested. Which “down regulation of ApoB mRNA in kidney” value did it give?
A: higher for the unconjugated LNA oligonucleotide (control) than for the GalNAc conjugated compounds

Q: And the “ApoB mRNA knock down in the liver” value?
A: comparable effect on the target mRNA (ApoB mRNA) to the GalNAc2 cluster
